Source: patent publication US5736559A, “Biphenyl derivatives, pharmaceutical compositions containing these compounds and processes for preparing them” (Karl Thomae GmbH, priority 1991, dated 1998)
Where a name gives a salt, the structure may show the parent alone.

Key:
[1] = target: Fibrinogen binding to human thrombocytes; assay: Fibrinogen binding to human thrombocytes; conditions: 125I fibrinogen; gel-filtered human platelets; ADP; 20 minutes at ambient temperature; read-out: Fibrinogen binding test IC50
Experimental: Fibrinogen binding to human thrombocytes The blood obtained by puncturing an antecubital vein is anticoagulated with trisodium citrate (final concentration: 13 mM) and centrifuged for 10 minutes at 170 xg. The supernatant platelet-rich plasma is poured onto a Sepharose 2B column (Pharmacia) and eluted with a solution of 90 mM common salt, 14 mM trisodium citrate, 5 mM glucose and 50 mM Tris(hydroxymethyl)aminomethane, adjusted to pH 7.4. The gel-filtered platelets (GFP) appearing before the plasma proteins are used for the binding experiments. 50 μl of a 60 mM calcium chloride solution, 50 μl of a 0.6 mM adenosine diphosphate solution, 100 μl of substance solution or solvent and 50 μl of fibrinogen solution (containing 3 μg of ^125 I fibrinogen) are added to 750 μl of GFP and incubated for 20 minutes at ambient temperature. The non-specific binding is determined in the presence of 3 mg/ml of cold fibrinogen. 900 μl of the incubated material are carefully pipetted onto 250 μl of silicon oil (AP 38: AR 20, 1:2 v/v, Wacker Chemie) in Eppendorf tubes and centrifuged for 2 minutes at 10,000 xg. The aqueous supernatant and some of the oil are drawn off, the tips of the tubes are cut off together with the platelet pellet and the quantity of bound fibrinogen is determined in a gamma counter. The concentration of substance which brings about a 50% inhibition in fibrinogen binding is determined from a series of concentrations and is given as the IC50 value.

[2] = tested on: thrombocyte (platelet) aggregation; assay: Antithrombotic activity: collagen-induced thrombocyte aggregation in platelet rich plasma (Born and Cross); type: cell-based; conditions: Homo sapiens, platelet rich plasma from healthy test subjects, 10 minutes at 37° C. preincubation, 50% change in optical density, read-out: Inhibition of platelet aggregation EC50
Experimental: 2. Antithrombotic activity Method: Thrombocyte aggregation is measured in platelet rich plasma from healthy test subjects using the Born and Cross method (J. Physiol. 170, 397 (1964)). In order to inhibit coagulation the blood is mixed with sodium citrate 3.14% in a ratio by volume of 1:10. Collagen-induced aggregation: The course of the decrease in optical density of the platelet suspension is photometrically measured and recorded after the addition of the substance which triggers aggregation. The rate of aggregation is deduced from the gradient angle of the density curve. The point on the curve where there is maximum transmittance is used to calculate the optical density. The quantity of collagen used is as little as possible but sufficient to give an irreversible reaction curve. Standard commercial collagen produced by Hormonchemie of Munich is used. Before the addition of the collagen the plasma is incubated for 10 minutes at 37° C. with the substance. From the measurements obtained, an EC50 is determined graphically, relating to a 50% change in optical density in terms of the inhibition of aggregation.

[3] = tested on: mice; assay: tolerability after intravenous administration in mice; type: in vivo; conditions: for sedation during the injection phase: mouse, in vivo, iv, 30 mg/kg
[4] = tested on: mouse; assay: tolerability after peroral administration in the mouse; type: in vivo; conditions: 2.0 g/kg
[5] = tested on: collagen-induced thrombocyte aggregation; assay: collagen-induced thrombocyte aggregation ex vivo in Rhesus monkeys after oral administration; conditions: oral administration of 1 mg/kg
Experimental: Moreover, the compound of Example 8(5) inhibits the collagen-induced thrombocyte aggregation ex vivo in Rhesus monkeys, for example, after oral administration of 1 mg/kg for longer than 8 hours.

[6] = tested on: rat; assay: tolerability after peroral administration in the rat; type: in vivo; conditions: 2.0 g/kg

| SMILES | IC50 [1] | EC50 [2] | also measured |
| --- | --- | --- | --- |
| COc1ccc(CCNC(=O)C(CC(=O)O)NC(=O)Cc2ccc(-c3ccc(C(=N)N)cc3)cc2)cc1.Cl (stereo not shown) [2(11), 4-amidino-4'-[[2-carboxy-1-[[2-(4-methoxyphenyl)-ethyl]aminocarbonyl]ethylamino]carbonylmethyl]biphenyl hydrochloride] | 360 nM | 2200 nM | sedation during the injection phase [3]: 1 or 2 animals were sedated |
| COC(=O)CC1CCN(C(=O)c2ccc(-c3ccc(C(=N)NC(=O)OC)cc3)cc2)CC1 [Example 8(5), 4-(N-methoxycarbonylamidino)-4'-[(4-methoxycarbonylmethylpiperidino)carbonyl]biphenyl] |  |  | toxic effects [4]: no toxic effects were observed; duration of inhibition of collagen-induced thrombocyte aggregation ex vivo [5]: > 8 h; toxic effects [6]: no toxic effects were observed |
| N=C(N)c1ccc(-c2ccc(NC(=O)CCCC(=O)O)cc2)cc1 [1(1), 4-amidino-4'-(4-carboxybutyrylamino) biphenyl] | 160 nM | 1100 nM | sedation during the injection phase [3]: 1 or 2 animals were sedated |
| Cl.N=C(N)c1ccc(-c2ccc(C(=O)N3CCC(CC(=O)O)CC3)cc2)cc1 [Example 1(39), 4-amidino-4'-[(4-carboxymethylpiperidino)-carbonyl]biphenyl hydrochloride] | 24 nM | 100 nM | animals died ([3]; mice, intravenous, 60 mg/kg, three animals tested): none of the three animals tested died |
| N=C(N)c1ccc(-c2ccc(C(=O)NCCCCC(=O)O)cc2)cc1 [1(65), 4-amidino-4'-[(4-carboxybutyl)aminocarbonyl]-biphenyl hydrochloride] | 220 nM | 2400 nM |  |
| N=C(N)c1ccc(-c2ccc(OCC(=O)NCCC(=O)O)cc2)cc1 [1(4), 4-amidino-4'-[[(2-carboxyethyl)aminocarbonyl]-methyloxy]biphenyl] | 350 nM | 1700 nM |  |
| N=C(N)c1ccc(-c2ccc(C(=O)N3CCN(CC(=O)O)CC3)cc2)cc1 [1(67), 4-amidino-4'-[(4-carboxymethylpiperazino)-carbonyl]biphenyl hydrochloride] | 180 nM | 350 nM |  |

Further compounds by falling IC50 [1], results first:

| IC50 [1] | SMILES | EC50 [2] | also measured |
| --- | --- | --- | --- |
| 47000 nM | COC(=O)Cc1cccc(NC(=O)c2ccc(-c3ccc(C(=N)N)cc3)cc2)c1 [6(4), 4-amidino-4'-[[3-(methoxycarboxylmethyl)phenyl]-aminocarbonyl]biphenyl hydrochloride] | 4400 nM |  |
| 25000 nM | COC(=O)C1CCN(C(=O)c2ccc(-c3ccc(C(=N)N)cc3)cc2)CC1 [6(81), 4-amidino-4'-[(4-methoxycarbonylpiperidino)-carbonyl]biphenyl] | 34000 nM |  |
| 14000 nM | COC(=O)CNC(=O)COc1ccc(-c2ccc(C(=N)N)cc2)cc1 [6(2), 4-amidino-4'-[[(4-methoxycarbonylmethyl)-aminocarbonyl]methyloxy]biphenyl hydrochloride] | 40000 nM |  |
| 5900 nM | COC(=O)C1CCN(C(=O)Cc2ccc(-c3ccc(C(=N)N)cc3)cc2)CC1 [6(56), 4-amidino-4'-[(4-methoxycarbonylpiperidino)-carbonylmethyl]biphenyl hydrochloride] | 4900 nM |  |
| 5700 nM | N=C(N)c1ccc(-c2ccc(C(=O)NCC(N)=O)cc2)cc1 [6(86), 4-amidino-4'-(aminocarbonylmethylaminocarbonyl)-biphenyl hydrochloride] | 21000 nM |  |
| 970 nM | COC(=O)CCCCOc1ccc(-c2ccc(C(=N)N)cc2)cc1 [6(9), 4-amidino-4'-(4-methoxycarbonylbutyloxy)biphenyl hydrochloride] | 1300 nM |  |
| 520 nM | N=C(N)c1ccc(-c2ccc(C(=O)N3CCCC(CC(=O)O)C3)cc2)cc1 (stereo not shown) [1(41), 4-amidino-4'-[(3-carboxymethylpiperidino)-carbonyl]biphenyl hydrochloride] | 2600 nM |  |
| 31 nM | N=C(N)c1ccc(-c2ccc(C(=O)NC3CCC(C(=O)O)CC3)cc2)cc1 (stereo not shown) [1(80), 4-amidino-4'-[(4-carboxycyclohexyl)aminocarbonyl]-biphenyl hydrochloride] | 40 nM |  |
